From patent US10899747B2, “Biaryl piperidine amide compounds and methods of use thereof” (Athenex, Inc., priority 2017, dated 2021) come the findings set out here.

For the experiment, the system named is IL-2. The experiment in a line: PHA-IL2 (cell activation and cytokine analysis). The class given is cell-based. The conditions noted are these: 50% inhibition concentration class. How it is done:
Cells to be tested may include, but are not limited to, a) Jurkat (a transformed human T cell leukemia), b) whole blood isolated from human or rodent sources, c) peripheral blood mononuclear cells (PBMC) freshly isolated from human or rodent whole blood, or d) purified fractions of PBMC (e.g., CD4 T cells). Cells are plated in 96-well plates at a final density of 1.0-2.0×10^6 cells/ml in 150 ul of assay medium (RPMI+0.5% fetal calf serum). Test compounds are included at a final concentration of ≤20 uM and generally pre-incubated with cells for 30 minutes prior to stimulation. An appropriate stimulus is added, including but not limited to, a) phytohemagglutinin (PHA), b) phorbol myristate acetate (PMA) and ionomycin, or c) stimulatory antibodies to the T cell receptor (TCR) complex (e.g., anti-CD3ε) and CD28. Cell cultures are stimulated for 24-48 hours in a humidified incubator (37 degrees C./5% CO2). A fraction of the culture supernatant is than harvested from each well and assayed for the presence of appropriate cytokine using standard ELISA. Cytokines to be analyzed may include IL-2, IL-4, IL-10, IL-17, IL-22, IFNγ, and/or TNFα. If required, the number of cytokine producing cells can be determined using intracellular staining and flow cytometry. […]

As usually defined, the IC50 is the concentration at which inhibition is half-maximal. The low end stands for greater potency in that assay, the high end for weaker potency in that assay. With `COC(=O)c1ccc(CCC2CCN(C(=O)COc3ccccc3-c3ccc(C#N)cc3)CC2)cc1` [Compound 290], the IC50 is under 1000 nM.
`O=C(COc1cccnc1-c1ccc(F)nc1)N1CCC(CCc2ccc3c(c2)OCCCO3)CC1` [Compound 339] gave an IC50 of 1000 to 10000 nM.
Regarding `COc1ccc(F)c(-c2ccccc2OCC(=O)N2CCC(CCc3ccc4c(c3)OCO4)CC2)c1` [Compound 238], the concentration for half-maximal inhibition (IC50) is under 1000 nM.
The compound `O=C(COc1ccccc1-c1ccccc1)N1CCC(CCCc2ccccc2)CC1` [Compound 261] had an IC50 of 1000 to 10000 nM.
The compound `N#Cc1ccc(OCC(=O)N2CCC(CCc3cccc(O)c3)CC2)c(-c2ccc(C(=O)c3ccccc3)cc2)c1` [Compound 417] showed an IC50 of under 1000 nM.
The result for `N#Cc1ccc(-c2cc(C(N)=O)ccc2OCC(=O)N2CCC(CCc3ccccc3)CC2)cc1` [Compound 321] reads 1000 to 10000 nM.
`O=C(COc1ccccc1-c1cnccn1)N1CCC(CCc2ccccc2)CC1` [Compound 423] registered an IC50 of 1000 to 10000 nM.
`O=C(CCc1ccccc1-c1ccccc1)N1CCC(CCc2cc(F)cc(F)c2)CC1` [Compound 220] showed an IC50 of 10000 to 50000 nM.
On to `CCc1ccc(OCC(=O)N2CCC(CCc3ccc4c(c3)OCO4)CC2)c(-c2ccc3[nH]ncc3c2)c1` [Compound 277], for which the IC50 is under 1000 nM.
In the case of `CC(C)Oc1cccc(CCC2CCN(C(=O)COc3ccccc3-c3ccc(C(=O)c4ccc(O)cc4)cc3)CC2)c1` [Compound 421], the IC50 was 1000 to 10000 nM.
In turn, `O=C(COc1ccccc1-c1ccc2[nH]cnc2c1)N1CCC(CCc2ccccc2)CC1` [Compound 370] displayed a half-maximal inhibitory concentration (IC50) of 1000 to 10000 nM.
Compound `CC(C)Oc1cccc(CCC2CCN(C(=O)COc3ccccc3-c3ccc(C#N)cc3O)CC2)c1` [Compound 443] gave an IC50 of under 1000 nM.
On to `Cc1ccc(-c2ccccc2OCC(=O)N2CCC(CCc3ccc4c(c3)OCO4)CC2)cc1` [Compound 202], for which the IC50 lay within 1000 to 10000 nM.
On to `CC(C)NC(=O)c1ccc(OCC(=O)N2CCC(CCc3ccccc3)CC2)c(-c2ccc(C#N)cc2)c1` [Compound 317], for which the IC50 was under 1000 nM.
Compound `O=C(COc1ccccc1-c1ccc(F)cc1)N1CCC(CCc2ccccc2)CC1` [Compound 270] showed a concentration for half-maximal inhibition (IC50) of 1000 to 10000 nM.
`O=C(COc1ccccc1-c1ccc(F)cc1F)N1CCC(CCc2ccc3c(c2)OCO3)CC1` [Compound 236] showed an IC50 of 10000 to 50000 nM.
In the case of `C=C(C)c1cccc(-c2ccccc2OCC(=O)N2CCC(CCc3ccc4c(c3)OCO4)CC2)c1` [Compound 205], the IC50 is 1000 to 10000 nM.
In the case of `COc1cccc(CCC2CCN(C(=O)CCc3ccccc3-c3ccc(F)cc3)CC2)c1` [Compound 224], the IC50 lay in the range of 1000 to 10000 nM.
`O=C(COc1ccccc1-c1ccc(F)cc1)N1CCC(CCc2ccc3c(c2)OCCO3)CC1` [Compound 294]: the half-maximal inhibitory concentration (IC50) fell in the range of 1000 to 10000 nM.
The result for `N#Cc1ccc(-c2ncccc2OCC(=O)N2CCC(CCc3ccc4c(c3)OCCCO4)CC2)cn1` [Compound 342] reads 10000 to 50000 nM; that for `N#Cc1ccc(-c2cccnc2OCC(=O)N2CCC(CCc3ccc4c(c3)OCO4)CC2)cc1` [Compound 324], 1000 to 10000 nM; that for `Cc1nc2cc(-c3ccccc3OCC(=O)N3CCC(CCc4ccc(OC(C)C)cc4)CC3)ccc2[nH]1` [Compound 433], under 1000 nM.
In turn, `O=C(COc1ccccc1-c1cccnc1)N1CCC(CCc2ccc3c(c2)OCO3)CC1` [Compound 194] yielded an IC50 of 1000 to 10000 nM.
Compound `Cc1cc(F)ncc1-c1ncccc1OCC(=O)N1CCC(CCc2ccc3c(c2)OCCO3)CC1` [Compound 336] came in with an IC50 of 10000 to 50000 nM.
Then `N#Cc1ccc(-c2cc(C#N)ccc2OCC(=O)N2CCC(CCc3cccc(OC(F)F)c3)CC2)cc1` [Compound 436], with under 1000 nM.
Turning to `C#CCOc1ccc(CCC2CCN(C(=O)COc3ccccc3-c3ccc(C(=O)c4ccccc4)cc3)CC2)cc1` [Compound 412], the IC50 lay in the range of 1000 to 10000 nM.
In turn, `COc1ccccc1-c1ccccc1OCC(=O)N1CCC(CCc2ccc3c(c2)OCO3)CC1` [Compound 180] registered an IC50 of 1000 to 10000 nM.
Compound `COc1ccc(CCC2CCN(C(=O)COc3ccccc3-c3ccc(F)cc3O)CC2)cc1OCCN1CCOCC1` [Compound 391] yielded an IC50 of 1000 to 10000 nM.
Then `N#Cc1ccc(OCC(=O)N2CCC(CCc3ccc(OCCN4CCOCC4)cc3)CC2)c(-c2ccc(F)cc2O)c1` [Compound 357], with under 1000 nM.
The result for `CC(C)Oc1cccc(CCC2CCN(C(=O)COc3ccc(C#N)cc3-c3ccccc3O)CC2)c1` [Compound 414] reads under 1000 nM.
As for `CCOc1cccc(-c2ccccc2OCC(=O)N2CCC(CCc3ccc4c(c3)OCO4)CC2)c1` [Compound 206], the IC50 was under 1000 nM.
Compound `Cn1ccc2cc(-c3ncccc3OCC(=O)N3CCC(CCc4cccc(OCCN5CCOCC5)c4)CC3)ccc21` [Compound 380] registered an IC50 of 1000 to 10000 nM.
Turning to `COc1ccc(CCC2(O)CCN(C(=O)COc3ccccc3-c3ccccc3)CC2)cc1` [Compound 175], the IC50 was in the range of 10000 to 50000 nM.
Regarding `N#Cc1ccc(OCC(=O)N2CCC(CCc3cccc(OC(F)F)c3)CC2)c(-c2ccc(F)cc2O)c1` [Compound 437], the IC50 is under 1000 nM.
The compound `NC(=O)c1ccc(-c2ccccc2OCC(=O)N2CCC(CCc3ccc4c(c3)OCO4)CC2)cc1` [Compound 183] yielded a half-inhibitory concentration (IC50) of 10000 to 50000 nM.
`O=C(COc1ccccc1-c1ccccc1)N1CCC(CCc2cc(C(F)(F)F)cc(C(F)(F)F)c2)CC1` [Compound 117] had a half-inhibitory concentration (IC50) of under 1000 nM.
Then `O=C(COc1ccccc1-c1ccc2cc[nH]c2c1)N1CCC(CCc2ccc3c(c2)OCCCO3)CC1` [Compound 343], with 10000 to 50000 nM; and `O=C(COc1ccccc1-c1cccc(F)c1)N1CCC(CCc2ccc3c(c2)OCO3)CC1` [Compound 187], with 1000 to 10000 nM; and `CC(Oc1ccccc1-c1ccccc1)C(=O)N1CCC(CCc2ccc3c(c2)OCO3)CC1` (stereo not shown) [Compound 153], with 10000 to 50000 nM.
For the compound `COc1cccc(CCC2CCN(C(=O)COc3cccnc3-c3ccc4c(cnn4C)c3)CC2)c1` [Compound 373], the IC50 was in the range of 1000 to 10000 nM.
Then `O=C(COc1ccccc1-c1ccc2nonc2c1)N1CCC(CCc2ccc3c(c2)OCO3)CC1` [Compound 174], with 1000 to 10000 nM; and `N#Cc1ccc(-c2cc(C(=O)NCc3ccccc3)ccc2OCC(=O)N2CCC(CCc3ccccc3)CC2)cc1` [Compound 366], with under 1000 nM; and `CCCOc1cccc(-c2ccccc2OCC(=O)N2CCC(CCc3ccc4c(c3)OCO4)CC2)c1` [Compound 244], with 1000 to 10000 nM.
`N#Cc1ccc(-c2cnccc2OCC(=O)N2CCC(CCc3ccc4c(c3)OCO4)CC2)cc1` [Compound 327]: the IC50 fell in the range of 10000 to 50000 nM.
For `COc1cccc(CCC2CCN(C(=O)COc3cccnc3-c3ccc4[nH]ncc4c3)CC2)c1` [Compound 362], the IC50 fell in the range of 1000 to 10000 nM.
Take `N#Cc1cccc(-c2ccccc2OCC(=O)N2CCC(CCc3ccc4c(c3)OCO4)CC2)c1` [Compound 192]: the half-maximal inhibitory concentration (IC50) lay in the range of 1000 to 10000 nM.
`O=C(COc1ccc(C(F)(F)F)cc1-c1ccc(F)cc1O)N1CCC(CCc2cccc(OCCN3CCOCC3)c2)CC1` [Compound 356] returned a half-maximal inhibitory concentration (IC50) of 1000 to 10000 nM.
Then `COc1cccc(-c2ccccc2OCC(=O)N2CCC(CCc3ccc4c(c3)OCO4)CC2)c1OC` [Compound 241], with under 1000 nM; and `N#Cc1ccc(-c2ccccc2OCC(=O)N2CCC(CCc3ccc4c(c3)OCCO4)CC2)cn1` [Compound 297], with under 1000 nM.
`O=C(COc1ccccc1-c1ccc2c(c1)OCCO2)N1CCC(CCc2ccc3c(c2)OCO3)CC1` [Compound 173]: the half-maximal inhibitory concentration (IC50) is 1000 to 10000 nM.
Then `O=C(COc1ccccc1-c1ccccc1CN1CCOCC1)N1CCC(CCc2ccc3c(c2)OCO3)CC1` [Compound 228], with 1000 to 10000 nM.
`N#Cc1ccc(-c2cc(C(=O)NCCO)ccc2OCC(=O)N2CCC(CCc3ccccc3)CC2)cc1` [Compound 322] had a half-maximal inhibitory concentration (IC50) of 1000 to 10000 nM.
The result for `N#Cc1ccc(OCC(=O)N2CCC(CCc3ccccc3)CC2)c(-c2ccc(F)cc2O)c1` [Compound 345] reads under 1000 nM.
The result for `O=C(COc1ccccc1-c1cccc(OCc2ccccc2)c1)N1CCC(CCc2ccc3c(c2)OCO3)CC1` [Compound 217] reads 1000 to 10000 nM; that for `CC(C)NS(=O)(=O)c1ccc(OCC(=O)N2CCC(CCc3ccc4c(c3)OCO4)CC2)c(-c2ccc(F)cc2O)c1` [Compound 390], 1000 to 10000 nM.
In turn, `O=C(CCc1ccccc1-c1ccc(F)cc1)N1CCC(CCc2cc(F)cc(F)c2)CC1` [Compound 223] displayed a concentration for half-maximal inhibition (IC50) of 1000 to 10000 nM.
In the case of `Nc1ccc(CCC2CCN(C(=O)COc3ccccc3-c3ccccc3)CC2)cn1` [Compound 255], the half-maximal inhibitory concentration (IC50) lay within 1000 to 10000 nM.
Take `O=C(c1ccccc1)c1ccc(-c2ccccc2OCC(=O)N2CCC(CCc3cccc(O)c3)CC2)cc1` [Compound 415]: the concentration for half-maximal inhibition (IC50) is under 1000 nM.
Take `COc1cccc(CCC2CCN(C(=O)COc3ccccc3-c3ccc4[nH]cnc4c3)CC2)c1` [Compound 371]: the IC50 is under 1000 nM.
For the compound `O=C(COc1ccccc1-c1ccc(Cl)cc1Cl)N1CCC(CCc2ccc3c(c2)OCO3)CC1` [Compound 240], the IC50 lay within 1000 to 10000 nM.
Then `CCc1ccc(OCC(=O)N2CCC(CCc3ccc4c(c3)OCO4)CC2)c(-c2ccc(F)cc2)c1` [Compound 273], with 1000 to 10000 nM; and `CN(C)CCNC(=O)c1ccc(OCC(=O)N2CCC(CCc3ccccc3)CC2)c(-c2ccc(C#N)cc2)c1` [Compound 325], with 1000 to 10000 nM; and `N#Cc1ccc(-c2ccccc2OCC(=O)N2CCC(CCc3ccccc3)CC2)cc1` [Compound 269], with under 1000 nM.
The result for `CC(C)Oc1cccc(CCC2CCN(C(=O)COc3ccccc3-c3cc(C#N)ccc3O)CC2)c1` [Compound 441] reads under 1000 nM.
